The record followed here is patent US20140235533A1, “DIHYDROFURAN DERIVATIVES AS INSECTICIDAL COMPOUNDS” (SYNGENTA PARTICIPATIONS AG, priority 2011, published 2014).

What all share (assay type): in vivo
One experiment has as its system Heliothis virescens. In words: Heliothis virescens (tobacco budworm) egg test on artificial diet. As to conditions: 96 h, 200 ppm (concentration in well 18 ppm), eggs 0-24 h old on artificial diet, egg mortality, larval mortality, growth regulation after 4 days. The method, then:
Heliothis virescens (Tobacco Budworm):
Eggs (0-24 h old) were placed in 24-well microtiter plate on artificial diet and treated with test solutions at an application rate of 200 ppm (concentration in well 18 ppm) by pipetting. After an incubation period of 4 days, samples were checked for egg mortality, larval mortality, and growth regulation. The following compound gave at least 80% control of Heliothis virescens: A1, A2, A03, A05, A06, A07, A08, A09, A10, A11, A12, A13, A14, A15, A16, A17, A18, A19, A20, A21, A22, A25, A26, A27, A31, A32, A34, A37, A39, A40, A42, A44, A45, A46, A47, A48, A49, A50, A51, A52, A53, B1**.

For a further experiment, the system named is Plutella xylostella. Kind of experiment: Plutella xylostella (diamond back moth) artificial diet MTP test. As to conditions: 144 h, 200 ppm (concentration in well 18 ppm), L2 larvae, larval mortality and growth regulation after 6 days. How it is done:
Plutella xylostella (Diamond Back Moth): 24-well microtiter plate (MTP) with artificial diet was treated with test solutions at an application rate of 200 ppm (concentration in well 18 ppm) by pipetting. After drying, the MTPs were infested with L2 larvae (7-12 per well). After an incubation period of 6 days, samples were checked for larval mortality and growth regulation.

The test system of another experiment is Spodoptera littoralis. In words: Spodoptera littoralis (Egyptian cotton leafworm) cotton leaf disc spray test. As to conditions: foliar, 72 h, 200 ppm spray on cotton leaf discs, 5 L1 larvae, mortality, feeding behavior, growth regulation 3 days after treatment. The source says:
Spodoptera littoralis (Egyptian Cotton Leafworm) Cotton leaf discs were placed on agar in a 24-well microtiter plate and sprayed with test solutions at an application rate of 200 ppm. After drying, the leaf discs were infested with 5 L1 larvae. The samples were checked for mortality, feeding behavior, and growth regulation 3 days after treatment (DAT).

Another experiment has as its system Diabrotica balteata. In words: Diabrotica balteata (corn root worm) artificial diet MTP test. Particulars: 120 h, 200 ppm (concentration in well 18 ppm), L2 larvae, larval mortality and growth regulation after 5 days. The method, then:
Diabrotica balteata (Corn Root Worm): A 24-well microtiter plate (MTP) with artificial diet was treated with test solutions at an application rate of 200 ppm (concentration in well 18 ppm) by pipetting. After drying, the MTPs were infested with L2 larvae (6-10 per well). After an incubation period of 5 days, samples were checked for larval mortality and growth regulation.

Broadly, the pest or weed control is the degree to which the test organism was suppressed or injured, in per cent. The low end stands for weak suppression, the high end for strong suppression. In turn, `O=C(NCc1ccc(C2=COC(c3cc(Cl)cc(Cl)c3)(C(F)(F)F)C2)cc1Cl)c1ccc2nsnc2c1` (centres unmarked) [Compound A21, N-[[2-chloro-4-[2-(3,5-dichlorophenyl)-2-(trifluoromethyl)-3H-furan-4-yl]phenyl]methyl]-2,1,3-benzothiadiazole-5-carboxamide] yielded a pest or weed control at 200 ppm with Heliothis virescens of at least 80%.

`O=C(/C=C/c1ccccc1F)NCc1ccc(C2=COC(c3cc(Cl)cc(Cl)c3)(C(F)(F)F)C2)cc1Cl` (centres unmarked) [Compound A16, (E)-N-[[2-chloro-4-[2-(3,5-dichlorophenyl)-2-(trifluoromethyl)-3H-furan-4-yl]phenyl]methyl]-3-(2-fluorophenyl)prop-2-enamide] had a pest or weed control at 200 ppm with Heliothis virescens of at least 80%.

Consider `CSC1(C(=O)NCc2ccc(C3=COC(c4cc(Cl)cc(Cl)c4)(C(F)(F)F)C3)cc2Cl)CC1` (centres unmarked) [Compound A49, N-[[2-chloro-4-[2-(3,5-dichlorophenyl)-2-(trifluoromethyl)-3H-furan-4-yl]phenyl]methyl]-1-methylsulfanyl-cyclopropanecarboxamide], for which the pest or weed control at 200 ppm in the experiment with Heliothis virescens, in the experiment with Plutella xylostella and in the experiment on Spodoptera littoralis was at least 80% throughout.

As for `O=C(NCc1ccc(C2=COC(c3cc(Cl)cc(Cl)c3)(C(F)(F)F)C2)cc1Cl)c1cnnc2ccccc12` (centres unmarked) [Compound A34, N-[[2-chloro-4-[2-(3,5-dichlorophenyl)-2-(trifluoromethyl)-3H-furan-4-yl]phenyl]methyl]cinnoline-4-carboxamide], the pest or weed control at 200 ppm in the experiment on Heliothis virescens and in the experiment on Plutella xylostella was at least 80% throughout.

On to `O=C(/C=C/c1ccco1)NCc1ccc(C2=COC(c3cc(Cl)cc(Cl)c3)(C(F)(F)F)C2)cc1Cl` (centres unmarked) [Compound A10, (E)-N-[[2-chloro-4-[2-(3,5-dichlorophenyl)-2-(trifluoromethyl)-3H-furan-4-yl]phenyl]methyl]-3-(2-furyl)prop-2-enamide], for which the pest or weed control at 200 ppm with Heliothis virescens and in the experiment on Plutella xylostella was at least 80% each time.

Consider `O=C(CCc1ccccc1)NCc1ccc(C2=COC(c3cc(Cl)cc(Cl)c3)(C(F)(F)F)C2)cc1Cl` (centres unmarked) [Compound A09, N-[[2-chloro-4-[2-(3,5-dichlorophenyl)-2-(trifluoromethyl)-3H-furan-4-yl]phenyl]methyl]-3-phenyl-propanamide], for which the pest or weed control at 200 ppm with Diabrotica balteata, in the experiment on Heliothis virescens and in the experiment on Plutella xylostella was at least 80% throughout.

As for `O=C(CCC(=O)c1ccccc1)NCc1ccc(C2=COC(c3cc(Cl)cc(Cl)c3)(C(F)(F)F)C2)cc1Cl` (centres unmarked) [Compound A13, N-[[2-chloro-4-[2-(3,5-dichlorophenyl)-2-(trifluoromethyl)-3H-furan-4-yl]phenyl]methyl]-4-oxo-4-phenyl-butanamide], the pest or weed control at 200 ppm with Heliothis virescens, in the experiment with Plutella xylostella and in the experiment with Spodoptera littoralis was at least 80% throughout.

In the experiment on Heliothis virescens, `O=C(NCc1ccc(C2=COC(c3cc(Cl)cc(Cl)c3)(C(F)(F)F)C2)cc1Cl)c1ccc2c(c1)OCCCO2` (centres unmarked) [Compound A32, N-[[2-chloro-4-[2-(3,5-dichlorophenyl)-2-(trifluoromethyl)-3H-furan-4-yl]phenyl]methyl]-3,4-dihydro-2H-1,5-benzodioxepine-7-carboxamide] gave a pest or weed control at 200 ppm of at least 80%.

In the case of `O=C(NCc1ccc(C2=COC(c3cc(Cl)cc(Cl)c3)(C(F)(F)F)C2)cc1Cl)c1ccc2sccc2c1` (centres unmarked) [Compound A37, N-[[2-chloro-4-[2-(3,5-dichlorophenyl)-2-(trifluoromethyl)-3H-furan-4-yl]phenyl]methyl]benzothiophene-5-carboxamide], the pest or weed control at 200 ppm in the experiment with Heliothis virescens is at least 80%.

For the compound `O=C(NCc1ccc(C2=COC(c3cc(Cl)cc(Cl)c3)(C(F)(F)F)C2)cc1Cl)c1c[nH]cn1` (centres unmarked) [Compound A31, N-[[2-chloro-4-[2-(3,5-dichlorophenyl)-2-(trifluoromethyl)-3H-furan-4-yl]phenyl]methyl]-1H-imidazole-4-carboxamide], the pest or weed control at 200 ppm in the experiment with Heliothis virescens, with Plutella xylostella and in the experiment on Spodoptera littoralis was at least 80% throughout.

`Cc1onc(-c2ccccc2)c1C(=O)NCc1ccc(C2=COC(c3cc(Cl)cc(Cl)c3)(C(F)(F)F)C2)cc1Cl` (centres unmarked) [Compound A45, N-[[2-chloro-4-[2-(3,5-dichlorophenyl)-2-(trifluoromethyl)-3H-furan-4-yl]phenyl]methyl]-5-methyl-3-phenyl-isoxazole-4-carboxamide] came in with a pest or weed control at 200 ppm in the experiment with Heliothis virescens of at least 80%.

In turn, `O=C(NCc1ccc(C2=COC(c3cc(Cl)cc(Cl)c3)(C(F)(F)F)C2)cc1Cl)c1cc(Cl)ccc1Cl` (centres unmarked) [Compound A28, 2,5-dichloro-N-[[2-chloro-4-[2-(3,5-dichlorophenyl)-2-(trifluoromethyl)-3H-furan-4-yl]phenyl]methyl]benzamide] yielded a pest or weed control at 200 ppm in the experiment with Plutella xylostella of at least 80%.

`O=C(NCc1ccc(C2=COC(c3cc(Cl)cc(Cl)c3)(C(F)(F)F)C2)cc1Cl)c1ccc(-c2ccccn2)s1` (centres unmarked) [Compound A42, N-[[2-chloro-4-[2-(3,5-dichlorophenyl)-2-(trifluoromethyl)-3H-furan-4-yl]phenyl]methyl]-5-(2-pyridyl)thiophene-2-carboxamide] yielded a pest or weed control at 200 ppm with Heliothis virescens of at least 80%.

Turning to `O=C(NCc1ccc(C2=COC(c3cc(Cl)cc(Cl)c3)(C(F)(F)F)C2)cc1Cl)c1ncoc1-c1ccccc1` (centres unmarked) [Compound A38, N-[[2-chloro-4-[2-(3,5-dichlorophenyl)-2-(trifluoromethyl)-3H-furan-4-yl]phenyl]methyl]-5-phenyl-oxazole-4-carboxamide], the pest or weed control at 200 ppm with Spodoptera littoralis is at least 80%.

In the experiment on Heliothis virescens, `O=C(COc1ccc(Cl)cc1)NCc1ccc(C2=COC(c3cc(Cl)cc(Cl)c3)(C(F)(F)F)C2)cc1Cl` (centres unmarked) [Compound A25, N-[[2-chloro-4-[2-(3,5-dichlorophenyl)-2-(trifluoromethyl)-3H-furan-4-yl]phenyl]methyl]-2-(4-chlorophenoxy)acetamide] had a pest or weed control at 200 ppm of at least 80%.

`O=C(/C=C/c1ccccc1Cl)NCc1ccc(C2=COC(c3cc(Cl)cc(Cl)c3)(C(F)(F)F)C2)cc1Cl` (centres unmarked) [Compound A17, (E)-N-[[2-chloro-4-[2-(3,5-dichlorophenyl)-2-(trifluoromethyl)-3H-furan-4-yl]phenyl]methyl]-3-(2-chlorophenyl)prop-2-enamide]: in the experiment with Heliothis virescens, the pest or weed control at 200 ppm is at least 80%.

Take `O=C(NCc1ccc(C2=COC(c3cc(Cl)cc(Cl)c3)(C(F)(F)F)C2)cc1Cl)c1ccc(O)c(F)c1` (centres unmarked) [Compound A52, N-[[2-chloro-4-[2-(3,5-dichlorophenyl)-2-(trifluoromethyl)-3H-furan-4-yl]phenyl]methyl]-3-fluoro-4-hydroxy-benzamide]: the pest or weed control at 200 ppm with Heliothis virescens and with Plutella xylostella was at least 80% throughout.

Take `CSc1ccc(C(=O)NCc2ccc(C3=COC(c4cc(Cl)cc(Cl)c4)(C(F)(F)F)C3)cc2Cl)cc1` (centres unmarked) [Compound A27, N-[[2-chloro-4-[2-(3,5-dichlorophenyl)-2-(trifluoromethyl)-3H-furan-4-yl]phenyl]methyl]-4-methylsulfanyl-benzamide]: the pest or weed control at 200 ppm with Diabrotica balteata and in the experiment on Heliothis virescens was at least 80% each time.

Take `O=C(CSc1nc2ccccc2[nH]1)NCc1ccc(C2=COC(c3cc(Cl)cc(Cl)c3)(C(F)(F)F)C2)cc1Cl` (centres unmarked) [Compound A12, 2-(1H-benzimidazol-2-ylsulfanyl)-N-[[2-chloro-4-[2-(3,5-dichlorophenyl)-2-(trifluoromethyl)-3H-furan-4-yl]phenyl]methyl]acetamide]: the pest or weed control at 200 ppm in the experiment with Heliothis virescens and in the experiment on Plutella xylostella was at least 80% in each case.
